Assay: Average cumulative delivery / flux across cadaver skin
Assay type: in vitro ADME
Conditions: FIG. 15
Description: The prodrug of Naltrexone with the PEG conjugation increased the molecular weight of the compound to be about 690 g/mole. […] The average flux for the Naltrexone was about 15.37 micrograms (μg) per hour per cm^2.

O=C1CC[C@@]2(O)[C@H]3Cc4ccc(O)c5c4[C@@]2(CCN3CC2CC2)[C@H]1O5 [Naltrexone]
average flux across the cadaver skin: about 15.37 micrograms (μg) per hour per cm^2
